Key:
Test in all cases: Transient transfection (transactivation) assay in CV-1 cells, GAL4-PPAR chimera, luciferase reporter
Type in all cases: cell-based
[1] = target: T1, PPAR alpha (Homo sapiens, UniProt Q07869)
T1 construct: expressed in transfected cells; host or cells: CV-1 cells
T1 sequence (Q07869 239-466 limits assumed): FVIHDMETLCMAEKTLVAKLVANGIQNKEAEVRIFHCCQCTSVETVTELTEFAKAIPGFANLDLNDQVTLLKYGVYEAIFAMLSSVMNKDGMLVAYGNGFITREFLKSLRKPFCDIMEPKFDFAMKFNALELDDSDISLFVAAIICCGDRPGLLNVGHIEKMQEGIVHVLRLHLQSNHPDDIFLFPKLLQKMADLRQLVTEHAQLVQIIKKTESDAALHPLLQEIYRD
Excerpt: Compounds may be screened for functional potency in transient transfection assays in CV-1 cells or other cell types for their ability to activate the PPAR subtypes (transactivation assay). A previously established chimeric receptor system was utilized to allow comparison of the relative transcriptional activity of the receptor subtypes on the same synthetic response element and to prevent endogenous receptor activation from complicating the interpretation of results. See, for example; Lehmann, J. M.; Moore, L. B.; Smith-Oliver, T. A; Wilkinson, W. O.; Willson, T. M.; Kliewer, S. A., An antidiabetic thiazolidinedione is a high affinity ligand for peroxisome proliferatur-activated receptor γ (PPARγ), J. Biol. Chem., 1995, 270, 12953-6. The ligand binding domains for murine and human PPAR-alpha, PPAR-gamma, and PPAR-delta are each fused to the yeast transcription factor GAL4 DNA binding domain. CV-1 cells were transiently transfected with expression vectors for the respective PPAR chimera along with a reporter construct containing four or five copies of the GAL4 DNA binding site driving expression of luciferase. After 8-16 h, the cells are replated into multi-well assay plates and the media is exchanged to phenol-red free DME medium supplemented with 5% delipidated calf serum. 4 hours after replating, cells were treated with either compounds or 1% DMSO for 20-24 hours. Luciferase activity was then assayed with Britelite (Perkin Elmer) following the manufacturer's protocol and measured with either the Perkin Elmer Viewlux or Molecular Devices Acquest Xsee, for example, Kliewer, S. A., et. al. Cell 1995, 83, 813-819). Rosiglitazone is used as a positive control in the hPPAR-γ assay. Wy-14643 and GW7647 is used as a positive control in the hPPAR-α assay. GW501516 is used as the positive control in the hPPAR-δ assay.
Compounds of Examples 1-233 were assayed to measure their biological activity with respect to their EC50 values and efficacy for modulating PPAR-alpha, PPAR-gamma, and PPAR-delta as set forth in Table 3.

[2] = target: T2, PPAR delta (Homo sapiens, UniProt Q03181)
T2 construct: expressed in transfected cells; host or cells: CV-1 cells
T2 sequence (Q03181 211-439 limits assumed): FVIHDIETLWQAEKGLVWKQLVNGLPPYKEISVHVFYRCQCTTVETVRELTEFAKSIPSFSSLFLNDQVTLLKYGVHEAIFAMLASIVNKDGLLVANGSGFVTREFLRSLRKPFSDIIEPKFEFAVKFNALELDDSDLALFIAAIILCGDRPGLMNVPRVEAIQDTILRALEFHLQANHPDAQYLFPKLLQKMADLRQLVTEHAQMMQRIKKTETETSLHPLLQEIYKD

[3] = target: T3, PPAR gamma (Homo sapiens, UniProt P37231)
T3 construct: expressed in transfected cells; host or cells: CV-1 cells
T3 sequence (P37231 238-503 limits assumed): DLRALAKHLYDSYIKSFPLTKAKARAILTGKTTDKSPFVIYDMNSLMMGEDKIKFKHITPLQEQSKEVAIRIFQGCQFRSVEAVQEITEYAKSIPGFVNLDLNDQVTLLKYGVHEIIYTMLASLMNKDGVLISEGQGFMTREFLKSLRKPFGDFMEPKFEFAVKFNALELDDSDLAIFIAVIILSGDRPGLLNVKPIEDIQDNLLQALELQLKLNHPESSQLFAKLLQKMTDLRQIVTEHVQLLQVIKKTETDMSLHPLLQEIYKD

| EC50 [1] [µM] | EC50 [2] [µM] | EC50 [3] [µM] | SMILES |
| --- | --- | --- | --- |
| > 100 | < 5 | 5 to 100 | Cc1ccc(S(=O)(=O)N2C[C@H](C)N(c3ccc(C(F)(F)F)cn3)C[C@H]2C)cc1CC(=O)O (mixture of isomers) [Example 21, SR and RS-{5-[2,5-Dimethyl-4-(5-trifluoromethyl-pyridin-2-yl)-piperazine-1-sulfonyl]-2-methyl-phenyl}-acetic acid] |
| 5 to 100 | < 5 | < 5 | Cc1ccc(S(=O)(=O)N2CCN(c3ccc(C(F)(F)F)cn3)[C@@H](C)[C@H]2C)cc1CC(=O)O (mixture of isomers) [Example 104, RS and SR-{5-[2,3-Dimethyl-4-(5-trifluoromethyl-pyridin-2-yl)-piperazine-1-sulfonyl]-2-methyl-phenyl}-acetic acid] |
| > 100 | < 5 | > 100 | Cc1cc(CC(=O)O)cc(S(=O)(=O)N2CCN(c3ccc(C(F)(F)F)cn3)[C@@H](C)[C@H]2C)c1 (mixture of isomers) [Example 106, RS and SR-{3-[2,3-Dimethyl-4-(5-trifluoromethyl-pyridin-2-yl)-piperazine-1-sulfonyl]-5-methyl-phenyl}-acetic acid] |
| > 100 | < 5 | < 5 | C[C@@H]1[C@H](C)N(c2ccc(C(F)(F)F)cn2)CCN1S(=O)(=O)c1cccc(CC(=O)O)c1 (racemic) [Example 105, RS and SR-{3-[2,3-Dimethyl-4-(S-trifluoromethyl-pyridin-2-yl)-piperazine-1-sulfonyl]-phenyl}-acetic acid] |
| 5 to 100 | < 5 | < 5 | Cc1ccc(S(=O)(=O)N2CCN(c3ccc(C(F)(F)F)cn3)[C@H](C)C2)cc1CC(=O)O (single isomer, unassigned) [Example 69] |
| > 100 | < 5 | > 100 | Cc1ccc(CC(=O)O)cc1S(=O)(=O)N1CCC(c2ccc(Cl)cc2)CC1 [Example 1] |
| > 100 | 5 to 100 | > 100 | Cc1ccc(S(=O)(=O)N2CCC(c3ccc(Cl)cc3)CC2)cc1CC(=O)O [Example 2, {5-[4-(4-Chlorophenyl)-piperidine-1-sulfonyl]-2-methyl-phenyl}-acetic acid] |
| 5 to 100 | < 5 | 5 to 100 | O=C(O)Cc1cccc(S(=O)(=O)N2CCN(c3ccc(C(F)(F)F)cc3)CC2)c1 [Example 3, {3-[4-(4-Trifluoromethyl-phenyl)-piperazine-1-sulfonyl]-phenyl}-acetic acid] |
| 5 to 100 | < 5 | 5 to 100 | O=C(O)Cc1cccc(S(=O)(=O)N2CCN(c3ccc(C(F)(F)F)cn3)CC2)c1 [Example 4, {3-[4-(5-Trifluoromethyl-pyridin-2-yl)-piperazine-1-sulfonyl]-phenyl}-acetic acid] |
| > 100 | < 5 | 5 to 100 | Cc1ccc(S(=O)(=O)N2CCCN(c3ccc(C(F)(F)F)cc3)CC2)cc1CC(=O)O [Example 5, {2-Methyl-5-[4-(4-trifluoromethyl-phenyl)-[1,4]diazepane-1-sulfonyl]-phenyl}-acetic acid] |
| 5 to 100 | < 5 | 5 to 100 | Cc1ccc(S(=O)(=O)N2CCN(c3ccc(C(F)(F)F)cn3)CC2C(C)C)cc1CC(=O)O (stereo not drawn) [Example 6, {5-[2-Isopropyl-4-(5-trifluoromethyl-pyridin-2-yl)-piperazine-1-sulfonyl]-2-methyl-phenyl}-acetic acid] |
| 5 to 100 | < 5 | 5 to 100 | CCC1CN(c2ccc(C(F)(F)F)cn2)CCN1S(=O)(=O)c1ccc(C)c(CC(=O)O)c1 (stereo not drawn) [Example 7, {5-[2-Ethyl-4-(5-trifluoromethyl-pyridin-2-yl)-piperazine-1-sulfonyl]-2-methyl-phenyl)-acetic acid] |
| 5 to 100 | < 5 | < 5 | Cc1ccc(S(=O)(=O)N2CCCN(c3ccc(C(F)(F)F)cn3)CC2)cc1CC(=O)O [Example 8, {2-Methyl-5-[4-(5-trifluoromethyl-pyridin-2-yl)-[1,4]diazepane-1-sulfonyl]-phenyl}-acetic acid] |
| < 5 | < 5 | < 5 | Cc1ccc(S(=O)(=O)N2CCCN(c3ncc(C(F)(F)F)cc3Cl)CC2)cc1CC(=O)O [Example 9] |
| > 100 | 5 to 100 | > 100 | Cc1ccc(S(=O)(=O)N2C[C@@H]3C[C@H]2CN3c2cccc(F)c2)cc1CC(=O)O [Example 10, S,S-{5-[4-(3-Fluorophenyl)-2,5-diaza-bicyclo[2.2.1]heptane-1-sulfonyl]-2-methyl-phenyl}acetic acid] |
| > 100 | 5 to 100 | > 100 | Cc1ccc(S(=O)(=O)N2C[C@@H]3C[C@H]2CN3c2ccc(F)cc2)cc1CC(=O)O [Example 11] |
| > 100 | 5 to 100 | 5 to 100 | Cc1ccc(S(=O)(=O)N2CCCN(c3ncccc3C(F)(F)F)CC2)cc1CC(=O)O [Example 12, {2-Methyl-5-[4-(3-trifluoromethyl-pyridin-2-yl)-[1,4]diazepane-1-sulfonyl]-phenyl}-acetic acid] |
| > 100 | 5 to 100 | > 100 | Cc1ccc(S(=O)(=O)N2CCCN(c3ccncc3)CC2)cc1CC(=O)O [Example 13] |
| 5 to 100 | < 5 | 5 to 100 | Cc1ccc(S(=O)(=O)N2CCCC(c3ccc(C(F)(F)F)cc3)C2)cc1CC(=O)O (stereo not drawn) [Example 15, {2-Methyl-5-[3-(4-trifluoromethyl-phenyl)-piperidine-1-sulfonyl]-phenyl}-acetic acid] |
| > 100 | 5 to 100 | < 5 | Cc1ccc(S(=O)(=O)N2CCCC(c3cccc(C(F)(F)F)c3)C2)cc1CC(=O)O (stereo not drawn) [Example 16, {2-Methyl-5-[3-(3-trifluoromethyl-phenyl)-piperidine-1-sulfonyl]-phenyl}-acetic acid] |
| 5 to 100 | < 5 | 5 to 100 | Cc1ccc(S(=O)(=O)N2CCN(c3nc4ccccc4o3)CC2)cc1CC(=O)O [Example 17, [5-(4-Benzoxazol-2-yl-piperazine-1-sulfonyl)-2-methyl-phenyl]-acetic acid] |
| < 5 | < 5 | < 5 | Cc1ccc(S(=O)(=O)N2CCN(c3nc4ccccc4s3)CC2)cc1CC(=O)O [Example 18, [5-(4-Benzothiazol-2-yl-piperazine-1-sulfonyl)-2-methyl-phenyl]-acetic acid] |
| 5 to 100 | < 5 | 5 to 100 | Cc1ccc(S(=O)(=O)N2CCN(c3ccc(C(F)(F)F)cn3)CC2C)cc1CC(=O)O (stereo not drawn) [Example 19] |
| > 100 | < 5 | > 100 | Cc1ccc(S(=O)(=O)N2[C@H](C)CN(c3ccc(C(F)(F)F)cn3)C[C@@H]2C)cc1CC(=O)O [Example 20, {5-[2,6-Dimethyl-4-(5-trifluoromethyl-pyridin-2-yl)-piperazine-1-sulfonyl]-2-methyl-phenyl}-acetic acid] |
| 5 to 100 | < 5 | < 5 | Cc1cc(CC(=O)O)cc(S(=O)(=O)N2CCN(c3ncc(C(F)(F)F)cc3Cl)CC2)c1 [Example 22, {5-Methyl-3-[4-(3-chloro-5-trifluoromethyl-pyridin-2-yl)-piperazine-1-sulfonyl]-phenyl)-acetic acid] |
